Among the test systems are SK-MEL-5; EKVX; KM12; 786-0; OVCAR-4; SF-295; Malme-3M; NCI-H23; NCI-H460; LOX IMVI; RPMI-8226; SK-MEL-28; A498; UO-31; SF-268; HCT-15; HCT-116; CCRF-CEM; SR.
Assay in all cases: DTP human tumour cell line panel, 48 h

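Cultured in 96-well plates, cells were exposed to test compound for 48 hours across five concentrations. GI50 is the concentration that inhibits growth by half.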 Calls of active or inactive are those of the source. No stated cut-off is given here; in the data, active = GI50 up to about 1.1 µM and inactive = higher. A value given as a limit tells only on which side of the number the result lay.

Turning to `Oc1nc2c(c(-c3ccc(Br)cc3)n1)COC/C2=C\c1ccc(Br)cc1`, the GI50 in the assay on SK-MEL-5, with EKVX, in the assay with KM12, with 786-0, in the assay with OVCAR-4 and in the assay with SF-295 was > 50 µM (inactive) in each case. For the same compound, the GI50 in the assay with Malme-3M, in the assay on NCI-H23, in the assay with NCI-H460, with LOX IMVI, with RPMI-8226 and in the assay on SK-MEL-28 was > 50 µM (inactive) in each case. Further, the GI50 (in general, the concentration giving 50% growth inhibition) is > 50 µM (inactive) in the assay on A498; > 50 µM (inactive) in the assay on UO-31; > 50 µM (inactive) in the assay with SF-268; greater than 50 µM in the assay with HCT-15; > 50 µM (inactive) in the assay on HCT-116; > 50 µM (inactive) in the assay with CCRF-CEM.

Turning to `CCCNC(=S)N/C=C1/C(=O)C=C(C)OC1=O`, the GI50 in the assay on SK-MEL-5, with EKVX, in the assay with KM12, in the assay on 786-0, in the assay with OVCAR-4 and in the assay on SF-295 was > 100 µM (inactive) throughout. In addition, the GI50 with NCI-H23 is > 100 µM (inactive); in the assay on NCI-H460 it was > 100 µM (inactive); in the assay with LOX IMVI, > 100 µM (inactive); with SK-MEL-28 it was > 100 µM (inactive); with UO-31, > 100 µM (inactive); in the assay with HCT-15, greater than 100 µM. Moreover, in the assay with HCT-116, the GI50 was > 100 µM (inactive).

On to `Cc1ccsc1/C=N/Nc1cc(C)c2cccc(C)c2n1`, for which the GI50 in the assay on EKVX is > 100 µM (inactive); in the assay on KM12, > 100 µM (inactive); in the assay on 786-0, 24.4 µM (inactive); in the assay with OVCAR-4, > 100 µM (inactive); in the assay with SF-295 it was 9.33 µM (inactive); in the assay on NCI-H23 it was > 100 µM (inactive). The GI50 in the assay with SK-MEL-28, in the assay with A498 and in the assay with SF-268 was > 100 µM (inactive) each time.

On to `Cc1ccc(/N=N/C(=N/NC(=O)c2cc(Cl)ccc2C(=O)c2ccccc2)c2ccc(N(CCC#N)CCC#N)cc2C)cc1`, for which the GI50 in the assay on SK-MEL-5 was 14 µM (inactive); in the assay with EKVX, 17.3 µM (inactive); in the assay on KM12, 10.9 µM (inactive); in the assay on 786-0 it was 10.4 µM (inactive); in the assay on OVCAR-4 it was 10.4 µM (inactive); in the assay on SF-295, 14.9 µM (inactive). In addition, the GI50 in the assay with Malme-3M is 15.7 µM (inactive); with NCI-H23 it was 21.8 µM (inactive); in the assay on NCI-H460, 2.41 µM (inactive); in the assay on RPMI-8226, 10.2 µM (inactive); in the assay with SK-MEL-28 it was 14.1 µM (inactive); in the assay with UO-31 it was 22.4 µM (inactive). Besides, the GI50 in the assay with SF-268 is 10.8 µM (inactive); with HCT-15 it was 7.55 µM; in the assay on HCT-116, 9.64 µM (inactive); with CCRF-CEM, 3.17 µM (inactive).

Regarding `CCc1c2c(nc3ccc(O)cc13)-c1cc3c(c(=O)n1C2)COC(=O)[C@]3(O)CC` [7-ETHYL-10-HYDROXYCAMPTOTHECIN], the GI50 was 0.178 µM (active) in the assay with EKVX; 0.0212 µM (active) in the assay on KM12; < 0.001 µM (active) in the assay on 786-0; 0.00227 µM (active) in the assay with OVCAR-4; < 0.001 µM (active) in the assay with SF-295; < 0.001 µM (active) with NCI-H23. Further, the GI50 in the assay on NCI-H460 was < 0.001 µM (active); in the assay on LOX IMVI, < 0.001 µM (active); in the assay on RPMI-8226, 0.236 µM (active); in the assay with SK-MEL-28 it was 0.0194 µM (active); in the assay with SF-268, < 0.001 µM (active); with SR, < 0.001 µM (active). Further, the GI50 is 0.00711 µM in the assay on HCT-15, 0.402 µM (active) in the assay with HCT-116 and < 0.001 µM (active) in the assay with CCRF-CEM.

In the case of `O=[N+]([O-])c1cccc2c1[nH]c1c(-c3ccccc3)nccc12`, the GI50 with SK-MEL-5 is 1.53 µM (inactive); in the assay with EKVX, 3.21 µM (inactive); in the assay on KM12, 3.03 µM (inactive); in the assay with OVCAR-4, 2.02 µM (inactive); in the assay on SF-295, 3.08 µM (inactive); in the assay with Malme-3M, 2.24 µM (inactive). Also, the GI50 in the assay on NCI-H23 was 2.07 µM (inactive); in the assay with NCI-H460, 2.33 µM (inactive); in the assay with LOX IMVI it was 2.73 µM (inactive); in the assay with RPMI-8226, 1.46 µM (inactive); in the assay with SK-MEL-28 it was 3.84 µM (inactive); in the assay on A498 it was 3.72 µM (inactive). Also, the 50% growth inhibitory concentration (GI50) in the assay with UO-31 is 1.11 µM (active); in the assay with SF-268, 4.04 µM (inactive); in the assay on HCT-15, 2.61 µM; in the assay with HCT-116, 2.39 µM (inactive); with CCRF-CEM it was 1.68 µM (inactive).

`CC(C)C1OC23CCCCC2C(C#N)(C#N)C1(C#N)C(=N)O3` (stereo not drawn): the GI50 in the assay with SK-MEL-5 was 16.8 µM (inactive); in the assay with EKVX, 27.5 µM (inactive); in the assay on KM12, > 10 µM (inactive); in the assay on 786-0, 14.2 µM (inactive); with SF-295, 49.9 µM (inactive); with Malme-3M, 16.8 µM (inactive). Moreover, the GI50 in the assay with NCI-H23 is 26.1 µM (inactive); with NCI-H460, 4.73 µM (inactive); in the assay with LOX IMVI, 20.1 µM (inactive); in the assay on SK-MEL-28, 27.4 µM (inactive); in the assay on A498 it was 25.3 µM (inactive); in the assay with UO-31 it was 32.7 µM (inactive). In addition, the GI50 was 19.2 µM (inactive) in the assay with SF-268, 9.46 µM with HCT-15, 16 µM (inactive) in the assay on HCT-116 and 5.56 µM (inactive) in the assay with CCRF-CEM.

On to `O=C1C2CN(Cc3ccccc3)CC1CN(CC1CC1)C2`, for which the GI50 with SK-MEL-5, in the assay on EKVX, in the assay with KM12, in the assay on 786-0, in the assay on OVCAR-4 and in the assay on SF-295 was > 100 µM (inactive) in each case. Further, the GI50 with Malme-3M, in the assay with NCI-H23, in the assay with NCI-H460, with LOX IMVI, in the assay with RPMI-8226 and with SK-MEL-28 was > 100 µM (inactive) throughout. Also, the GI50 in the assay with A498 was > 100 µM (inactive); in the assay with UO-31, > 100 µM (inactive); with SF-268, > 100 µM (inactive); with HCT-15 it was greater than 100 µM; in the assay with CCRF-CEM, > 100 µM (inactive).

As for `C=CC(Cl)(CBr)CCC(Br)C(C)(C)Cl` (stereo not drawn), the GI50 is 13.1 µM (inactive) in the assay with SK-MEL-5; 19.8 µM (inactive) in the assay with EKVX; 11.7 µM (inactive) in the assay with 786-0; 16.6 µM (inactive) with OVCAR-4; 14.8 µM (inactive) with SF-295; 18.7 µM (inactive) with Malme-3M. Besides, the GI50 in the assay with NCI-H23 is 17 µM (inactive); with NCI-H460 it was 14.8 µM (inactive); with RPMI-8226, 7.38 µM (inactive); in the assay with SK-MEL-28, 17.3 µM (inactive); in the assay on A498, 14.1 µM (inactive); in the assay with UO-31, 15.4 µM (inactive). Moreover, the GI50 was 20.8 µM (inactive) in the assay on SF-268, 18.3 µM in the assay with HCT-15, 12.8 µM (inactive) in the assay on HCT-116 and 1.89 µM (inactive) with CCRF-CEM.

Turning to `O=C(O)c1c(Cl)c(Cl)c(Cl)c(Cl)c1C(=O)Nc1ccc2cn[nH]c2c1`, the GI50 in the assay with SK-MEL-5 is > 100 µM (inactive); in the assay with EKVX it was > 100 µM (inactive); in the assay with KM12 it was 62.1 µM (inactive); in the assay with 786-0, > 100 µM (inactive); with OVCAR-4, > 100 µM (inactive); in the assay with SF-295 it was > 100 µM (inactive). In addition, the GI50 is > 100 µM (inactive) with Malme-3M; > 100 µM (inactive) in the assay with NCI-H23; > 100 µM (inactive) with NCI-H460; 37.4 µM (inactive) with RPMI-8226; > 100 µM (inactive) in the assay on SK-MEL-28; > 100 µM (inactive) with A498. Besides, the GI50 in the assay with UO-31 is > 100 µM (inactive); with SF-268 it was > 100 µM (inactive); in the assay on HCT-15, greater than 100 µM; in the assay with HCT-116, > 100 µM (inactive).

With `NS(=O)(=O)c1cc(S(N)(=O)=O)c(NC(=O)N(c2ccccc2)c2ccccc2)c(Cl)c1Cl`, the GI50 in the assay with SK-MEL-5 is 14.1 µM (inactive); in the assay with EKVX, 19.1 µM (inactive); with KM12, 20.3 µM (inactive); with 786-0 it was 30.1 µM (inactive); in the assay on OVCAR-4, 27.4 µM (inactive); in the assay on SF-295, 30.2 µM (inactive). Moreover, the GI50 in the assay on NCI-H23 was 20 µM (inactive); in the assay on NCI-H460, 34.9 µM (inactive); in the assay on LOX IMVI it was 12.5 µM (inactive); in the assay on RPMI-8226, 15.3 µM (inactive); in the assay on SK-MEL-28 it was 34.4 µM (inactive); with UO-31, 20.2 µM (inactive). Besides, the GI50 is 42.2 µM (inactive) in the assay on SF-268; 18.4 µM (inactive) in the assay with SR; 20.3 µM in the assay with HCT-15; 38.7 µM (inactive) in the assay on HCT-116; 1.98 µM (inactive) in the assay with CCRF-CEM.

Take `CN(C)CCC(C#N)(c1ccccc1)c1ccccc1`: the GI50 was 24.7 µM (inactive) with SK-MEL-5; > 100 µM (inactive) with EKVX; > 100 µM (inactive) in the assay with KM12; > 100 µM (inactive) in the assay on 786-0; > 100 µM (inactive) with OVCAR-4; 90.6 µM (inactive) with SF-295. The GI50 is 35.1 µM (inactive) in the assay with Malme-3M; > 100 µM (inactive) in the assay with NCI-H23; > 100 µM (inactive) in the assay with NCI-H460; 24.9 µM (inactive) in the assay with RPMI-8226; 23.1 µM (inactive) in the assay on SK-MEL-28; 71.3 µM (inactive) in the assay with A498. Besides, the GI50 in the assay with UO-31 is 65.9 µM (inactive); in the assay on SF-268, > 100 µM (inactive); in the assay with HCT-15, greater than 100 µM; in the assay on HCT-116 it was 72.6 µM (inactive).

On to `c1c[nH]c(-c2ccc(-c3ccc[nH]3)c3nsnc23)c1`, for which the GI50 was > 42.9 µM (inactive) with SK-MEL-5; 0.0426 µM (active) in the assay with EKVX; 0.217 µM (active) in the assay with KM12; > 39.1 µM (inactive) with 786-0; 0.612 µM (active) in the assay with OVCAR-4; > 58.1 µM (inactive) in the assay with SF-295. The GI50 with NCI-H23 is 0.0348 µM (active); in the assay on NCI-H460 it was 17.3 µM (inactive); in the assay on LOX IMVI, > 100 µM (inactive); in the assay with RPMI-8226, > 27.4 µM (inactive); with SK-MEL-28, > 69.5 µM (inactive); with A498 it was > 76.6 µM (inactive). Besides, the GI50 was > 48.1 µM (inactive) in the assay with UO-31; > 53.6 µM (inactive) in the assay with SF-268; 0.245 µM in the assay with HCT-15; > 45.9 µM (inactive) in the assay with HCT-116; 15.4 µM (inactive) in the assay with CCRF-CEM.

The values are drawn from ChEMBL document CHEMBL1201862, “PubChem BioAssay data set” (2004).
